{"source": "patent EP2508526A1", "about": "“Spiroalkene carboxamide derivatives and their use as chemokine receptor modulators” (Ares Trading SA, priority 2011, dated 2012)", "data": [{"target": "T1, hCCR2b (Homo sapiens, UniProt P41597)", "T1 sequence (P41597 1-360 isoform P41597-2)": "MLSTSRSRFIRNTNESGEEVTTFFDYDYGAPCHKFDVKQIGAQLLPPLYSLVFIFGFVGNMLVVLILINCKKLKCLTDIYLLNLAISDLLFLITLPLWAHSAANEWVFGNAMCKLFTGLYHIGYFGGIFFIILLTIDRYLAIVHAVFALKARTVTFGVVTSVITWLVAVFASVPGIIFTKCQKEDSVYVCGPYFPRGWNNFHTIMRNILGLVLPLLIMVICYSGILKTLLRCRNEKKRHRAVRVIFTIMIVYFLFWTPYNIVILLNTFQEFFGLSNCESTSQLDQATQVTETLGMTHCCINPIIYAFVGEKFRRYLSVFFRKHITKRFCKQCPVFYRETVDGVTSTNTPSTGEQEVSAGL", "assay": "CCR2 binding assay ([125I]MCP-1, SPA, CHO cell membranes)", "design": "expressed in transfected cells; host or cells: CHO cells (membrane preparation)", "conditions": "membranes from CHO cells expressing hCCR2b, 50 pM [125I]MCP-1; read-out: Binding hCCR2 (Ki)", "experimental": "Membranes were prepared from CHO cells expressing mCCR2b or hCCR2b for use in ligand binding studies. Cells were suspended in 50mM Tris-HCL, pH 7.4, 2 mM EDTA, 250 mM Sucrose and 1x Complete EDTA-free protease inhibitor cocktail (Roche) (Buffer A), and disrupted at 4°C by N2 decompression using a cell disruption bomb (Parr Instrument). Following centrifugation at 200 RCF for 10 min at 4°C, the supernatant was suspended in buffer A and centrifuged again at 19000 RPM (RCSC rotor SS34 code 05 Sorvall Instruments DUPONT) for 90 min at 4°C. The pellet was then suspended in 10 mM HEPES, pH 7.4, 1 mM EDTA, 250 mM Sucrose, and 1x Complete EDTA-free protease inhibitor cocktail (Buffer B) and homogenized using a potter. Membranes were flash frozen in liquid N2 and stored at -80°C. [125I] Monocyte Chemoattractant Protein -1 (MCP-1) (25µCi; Perkin Elmer) was added to test compounds in DMSO (1% final). Membranes and WGA SPA beads (GE Healthcare) were added to give a final volume of 100 µl in 96-well plates with assay concentrations of 50 pM or 100 pM [125I]Monocyte Chemoattractant Protein -1 (respectively for hCCR2b or mCCR2b), 50 mM HEPES, pH 7.4, 5 mM MgCl2, 1 mM CaCl2, 0.1% BSA, 1-5 µg/well of membranes and 100 µg/well of WGA SPA beads. Binding was performed for 90 min at RT with strong agitation of speed 5 (Heidolph Titramax 100 SCITEC) and bound radioactivity was measured on a PerkinElmer 1450 MicroBeta counter. Specific binding was calculated by subtracting remaining radioactivity in the presence of 1000-fold excess of unlabeled compound. Binding data were analyzed using the Genedata Screener® software.", "units": {"Ki": "nM"}, "values": [{"smiles": "CCN1CCC2(CC1)OC(=O)C(C)=C2C(=O)NCCc1cccc(C(F)(F)F)c1", "note": "[Compound 99, 8-ethyl-3-methyl-2-oxo-N-{2-[3-(trifluoromethyl)phenyl]ethyl}-1-oxa-8-azaspiro[4.5]dec-3-ene-4-carboxamide]", "Ki": "500 to 2000"}, {"smiles": "COCCN1CCC2(CC1)OC(=O)C(C)=C2C(=O)N1CCc2ccc(C(F)(F)F)cc2C1", "note": "[Compound 16, 8-(2-methoxyethyl)-3-methyl-4-{[7-(trifluoromethyl)-3,4-dihydroisoquinolin-2(1H)-yl]carbonyl}-1-oxa-8-azaspiro[4.5]dec-3-en-2-one]", "Ki": "< 50"}, {"smiles": "CC1=C(C(=O)N2CCN(c3cccc(C(F)(F)F)c3)CC2)C2(CCN(CC3CCOC3)CC2)OC1=O", "note": "(stereo not shown) [Compound 22, 3-methyl-8-(tetrahydrofuran-3-ylmethyl)-4-({4-[3-(trifluoromethyl)phenyl]piperazin-1-yl}carbonyl)-1-oxa-8-azaspiro[4.5]dec-3-en-2-one]", "Ki": "< 50"}, {"smiles": "CC1=C(C(=O)N2CCc3ncc(C(F)(F)F)cc3C2)C2(CCN(CC3CCOC3)CC2)OC1=O", "note": "(stereo not shown) [Compound 46, 3-methyl-8-(tetrahydrofuran-3-ylmethyl)-4-{[3-(trifluoromethyl)-7,8-dihydro-1,6-naphthyridin-6(5H)-yl]carbonyl}-1-oxa-8-azaspiro[4.5]dec-3-en-2-one]", "Ki": "< 50"}, {"smiles": "CC1=C(C(=O)N2CCN(c3cccc(C(F)(F)F)c3)CC2)C2(CCN(CCC(=O)O)CC2)OC1=O", "note": "[Compound 10, 3-[3-methyl-2-oxo-4-({4-[3-(trifluoromethyl)phenyl]piperazin-1-yl}carbonyl)-1-oxa-8-azaspiro[4.5]dec-3-en-8-yl]propanoic acid]", "Ki": "100 to 500"}, {"smiles": "CC1=C(C(=O)N2CCN(c3cccc(C(F)(F)F)c3)CC2)C2(CCN(Cc3ccccc3)CC2)OC1=O", "note": "[Compound 109, 8-benzyl-3-methyl-4-({4-[3-(trifluoromethyl)phenyl]piperazin-1-yl}carbonyl)-1-oxa-8-azaspiro[4.5]dec-3-en-2-one]", "Ki": "100 to 500"}, {"smiles": "CCN1CCC2(CC1)OC(=O)C(C)=C2C(=O)N1CCc2cc(C(F)(F)F)ccc2C1", "note": "[Compound 54, 8-ethyl-3-methyl-4-{[6-(trifluoromethyl)-3,4-dihydroisoquinolin-2 (1H)-yl]carbonyl}-1-oxa-8-azaspiro[4.5]dec-3-en-2-one]", "Ki": "< 50"}, {"smiles": "CCN1CCC2(CC1)OC(=O)C(C)=C2C(=O)N1CCc2ccc(C#N)cc2C1", "note": "[Compound 49, 2-[(8-ethyl-3-methyl-2-oxo-1-oxa-8-azaspiro[4.5]dec-3-en-4-yl)carbonyl]-1,2,3,4-tetrahydroisoquinoline-7-carbonitrile]", "Ki": "100 to 500"}, {"smiles": "CC1=C(C(=O)N2CCN(c3cccc(C(F)(F)F)c3)CC2)C2(CCN(Cc3cc4ccccc4[nH]3)CC2)OC1=O", "note": "[Compound 107, 8-(1H-indol-2-ylmethyl)-3-methyl-4-({4-[3-(trifluoromethyl)phenyl]piperazin-1-yl}carbonyl)-1-oxa-8-azaspiro[4.5]dec-3-en-2-one]", "Ki": "500 to 2000"}, {"smiles": "CC1=C(C(=O)N2CCN(c3cccc(C(F)(F)F)c3)CC2)C2(CCN(C(C)C)C2)OC1=O", "note": "(stereo not shown) [Compound 117, 7-isopropyl-3-methyl-4-({4-[3-(trifluoromethyl)phenyl]piperazin-1-yl}carbonyl)-1-oxa-7-azaspiro[4.4]non-3-en-2-one]", "Ki": "< 50"}, {"smiles": "CCN1CCC2(CC1)OC(=O)C(C)=C2C(=O)N1CCN(c2cccc(C)c2)CC1", "note": "[Compound 68, 8-ethyl-3-methyl-4-{[4-(3-methylphenyl)piperazin-1-yl]carbonyl}-1-oxa-8-azaspiro[4.5]dec-3-en-2-one]", "Ki": "500 to 2000"}, {"smiles": "CCN1CCC2(CC1)OC(=O)C(C)=C2C(=O)NCc1cccc(C(F)(F)F)c1", "note": "[Compound 89, 8-ethyl-3-methyl-2-oxo-N-[3-(trifluoromethyl)benzyl]-1-oxa-8-azaspiror[4.5]dec-3-ene-4-carboxamide]", "Ki": "50 to 100"}, {"smiles": "CC1=C(C(=O)N2CCN(c3cccc(C(F)(F)F)c3)CC2)C2(CCN(CCc3ccccc3Cl)CC2)OC1=O", "note": "[Compound 14, 8-[2-(2-chlorophenyl)ethyl]-3-methyl-4-({4-[3-(trifluoromethyl)phenyl]piperazin-1-yl}carbonyl)-1-oxa-8-azaspiro[4.5]dec-3-en-2-one]", "Ki": "100 to 500"}, {"smiles": "CC1=C(C(=O)N2CCc3ccc(C(F)(F)F)cc3C2)C2(CCN(C3CCS(=O)(=O)CC3)CC2)OC1=O", "note": "[Compound 37, 8-(1,1-dioxidotetrahydro-2H-thiopyran-4-yl)-3-methyl-4-{[7-(trifluoromethyl)-3,4-dihydroisoquinolin-2(1H)-yl]carbonyl}-1-oxa-8-azaspiro[4.5]dec-3-en-2-one]", "Ki": "50 to 100"}, {"smiles": "CC1=C(C(=O)N2CCc3ncc(C(F)(F)F)cc3C2)C2(CCN(C(C)C)CC2)OC1=O", "note": "[Compound 115, 8-isopropyl-3-methyl-4-{[3-(trifluoromethyl)-7,8-dihydro-1,6-naphthyridin-6(5H)-yl]carbonyl}-1-oxa-8-azaspiro[4.5]dec-3-en-2-one]", "Ki": "< 50"}, {"smiles": "CCN1CCC2(CC1)OC(=O)C(C)=C2C(=O)N1CCc2ccc(Cl)cc2C1", "note": "[Compound 50, 4-[(7-chloro-3,4-dihydroisoquinolin-2(1H)-yl)carbonyl]-8-ethyl-3-methyl-1-oxa-8-azaspiro[4.5]dec-3-en-2-one]", "Ki": "< 50"}, {"smiles": "CC1=C(C(=O)N2CCc3ccc(C(F)(F)F)cc3C2)C2(CCN(C3CCN(C)CC3)CC2)OC1=O", "note": "[Compound 38, 3-methyl-8-(1-methylpiperidin-4-yl)-4-{[7-(trifluoromethyl)-3,4-dihydroisoquinolin-2(1H)-yl]carbonyl}-1-oxa-8-azaspiro[4.5]dec-3-en-2-one]", "Ki": "100 to 500"}, {"smiles": "CCN1CCC2(CC1)OC(=O)C(C)=C2C(=O)Nc1ccc(-c2cccc(C(F)(F)F)c2)cc1", "note": "[Compound 98, 8-ethyl-3-methyl-2-oxo-N-[3'-(trifluoromethyl)biphenyl-4-yl]-1-oxa-8-azaspiro[4.5]dec-3-ene-4-carboxamide]", "Ki": "500 to 2000"}, {"smiles": "CC1=C(C(=O)N2CCc3ccc(C(F)(F)F)cc3C2)C2(CCN(C3CCCCC3)CC2)OC1=O", "note": "[Compound 29, 8-cyclohexyl-3-methyl-4-{[7-(trifluoromethyl)-3,4-dihydroisoquinolin-2(1H)-yl]carbonyl}-1-oxa-8-azaspiro[4.5]dec-3-en-2-one]", "Ki": "< 50"}, {"smiles": "CCN1CCC2(C1)OC(=O)C(C)=C2C(=O)N1CCc2ccc(C(F)(F)F)cc2C1", "note": "(stereo not shown) [Compound 42, 7-ethyl-3-methyl-4-{[7-(trifluoromethyl)-3,4-dihydroisoquinolin-2(1H)-yl]carbonyl}-1-oxa-7-azaspiro[4.4]non-3-en-2-one]", "Ki": "< 50"}, {"smiles": "CCN1CCC2(CC1)OC(=O)C(C)=C2C(=O)N1C[C@@H]2C[C@H]1CN2c1nccc(C(F)(F)F)n1", "note": "[Compound 72, 8-ethyl-3-methyl-4-({(1S,4S)-5-[4-(trifluoromethyl)pyrimidin-2-yl]-2.5-diazabicyclo[2.2.1]hept-2-yl}carbonyl)-1-oxa-8-azaspiro[4.5]dec-3-en-2-one]", "Ki": "< 50"}, {"smiles": "CC1=C(C(=O)N2CCc3ccc(C(F)(F)F)cc3C2)C2(CCN(C3CCOC(C)C3)CC2)OC1=O", "note": "(stereo not shown) [Compound 36, 3-methyl-8-(2-methyltetrahydro-2H-pyran-4-yl)-4-{[7-(trifluoromethyl)-3,4-dihydroisoquinolin-2(1H)-yl]carbonyl}-1-oxa-8-azaspiro[4.5]dec-3-en-2-one]", "Ki": "< 50"}]}]}
